The compounds below were run against D(3) dopamine receptor (Homo sapiens, UniProt P35462) (assay: Displacement of [3H]-N-methylspiperone from human dopmaine D3 receptor expressed in HEK293T cells assessed as inhibition constant by competition binding assay).
Assay type: cell-based

Sequence of D(3) dopamine receptor (P35462 whole entry): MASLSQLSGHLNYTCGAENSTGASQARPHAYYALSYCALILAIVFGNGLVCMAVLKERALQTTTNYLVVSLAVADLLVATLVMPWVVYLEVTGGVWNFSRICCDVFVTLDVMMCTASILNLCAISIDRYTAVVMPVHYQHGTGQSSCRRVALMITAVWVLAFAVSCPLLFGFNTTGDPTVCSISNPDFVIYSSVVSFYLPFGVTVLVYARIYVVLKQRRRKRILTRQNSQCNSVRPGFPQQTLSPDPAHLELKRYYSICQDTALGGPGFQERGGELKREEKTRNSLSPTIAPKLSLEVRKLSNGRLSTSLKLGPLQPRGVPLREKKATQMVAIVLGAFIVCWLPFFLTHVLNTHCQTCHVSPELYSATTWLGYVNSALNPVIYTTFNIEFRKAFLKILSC

| Ki [nM] | SMILES |
| --- | --- |
| 34 | COc1ccccc1N1CCN(CCCNC(=O)Nc2ccccc2-c2ccc(C(C)C)cc2)CC1 |
| 73 | COc1ccccc1N1CCN(CCCNC(=O)NCc2c(F)cccc2-c2ccccc2)CC1 |
| 89 | COc1ccccc1N1CCN(CCCNC(=O)NCc2ccccc2-c2ccc(C)cc2)CC1 |
| 26 | COc1ccccc1N1CCN(CCCNC(=O)Nc2cccc(-c3ccccc3)c2)CC1 |
| 92 | COc1ccc(CNC(=O)NCCCN2CCN(c3ccccc3OC)CC2)c(-c2ccccc2)c1 |

Continued, compound first:

| SMILES | Ki [nM] |
| --- | --- |
| COc1cccc(-c2ccccc2NC(=O)NCCCN2CCN(c3ccccc3OC)CC2)c1 | 24 |
| COc1ccccc1N1CCN(CCCNC(=O)NCc2cccc(F)c2-c2ccccc2)CC1 | 62 |
| COc1ccccc1N1CCN(CCCNC(=O)Nc2ccc(-c3ccccc3)cc2)CC1 | 22 |
| COc1cccc(-c2ccccc2CNC(=O)NCCCN2CCN(c3ccccc3OC)CC2)c1 | 75 |
| COc1ccccc1N1CCN(CCCNC(=O)Nc2ccccc2-c2ccc(C(C)(C)C)cc2)CC1 | 70 |
| COc1ccccc1N1CCN(CCCNC(=O)NCc2cc(F)ccc2-c2ccccc2)CC1 | 150 |
| COc1ccccc1N1CCN(CCCNC(=O)Nc2ccccc2-c2cccc(F)c2)CC1 | 23 |
| COc1ccccc1N1CCN(CCCNC(=O)NCc2ccc(F)cc2-c2ccccc2)CC1 | 99 |

What follows are compounds tested against T1, D(2) dopamine receptor (Homo sapiens, UniProt P14416) (assay: Displacement of [3H]-N-methylspiperone from human dopmaine D2L receptor expressed in CHO cell membrane assessed as inhibition constant by competition binding assay).
Assay type: cell membranes

T1 sequence (P14416 whole entry): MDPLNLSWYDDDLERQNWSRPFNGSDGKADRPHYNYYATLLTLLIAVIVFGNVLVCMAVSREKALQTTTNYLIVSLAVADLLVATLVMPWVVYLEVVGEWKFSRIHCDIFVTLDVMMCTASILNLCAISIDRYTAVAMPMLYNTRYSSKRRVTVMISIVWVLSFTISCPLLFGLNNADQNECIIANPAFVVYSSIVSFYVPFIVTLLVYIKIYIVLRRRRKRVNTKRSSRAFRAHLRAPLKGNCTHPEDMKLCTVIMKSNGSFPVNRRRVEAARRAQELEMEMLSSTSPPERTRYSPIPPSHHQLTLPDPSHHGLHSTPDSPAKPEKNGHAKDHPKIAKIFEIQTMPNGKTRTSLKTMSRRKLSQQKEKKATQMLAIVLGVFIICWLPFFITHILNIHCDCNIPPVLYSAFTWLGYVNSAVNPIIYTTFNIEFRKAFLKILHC

| Ki [nM] | SMILES |
| --- | --- |
| 150 | COc1ccccc1N1CCN(CCCNC(=O)Nc2ccccc2-c2ccc(C(C)C)cc2)CC1 |
| 210 | COc1ccccc1N1CCN(CCCNC(=O)NCc2c(F)cccc2-c2ccccc2)CC1 |
| 110 | COc1ccccc1N1CCN(CCCNC(=O)NCc2ccccc2-c2ccc(C)cc2)CC1 |
| 46 | COc1ccccc1N1CCN(CCCNC(=O)Nc2cccc(-c3ccccc3)c2)CC1 |
| 160 | COc1ccc(CNC(=O)NCCCN2CCN(c3ccccc3OC)CC2)c(-c2ccccc2)c1 |

Second part, the compound before the results:

| SMILES | Ki [nM] |
| --- | --- |
| COc1cccc(-c2ccccc2NC(=O)NCCCN2CCN(c3ccccc3OC)CC2)c1 | 120 |
| COc1ccccc1N1CCN(CCCNC(=O)Nc2ccc(-c3ccccc3)cc2)CC1 | 340 |
| COc1cccc(-c2ccccc2CNC(=O)NCCCN2CCN(c3ccccc3OC)CC2)c1 | 220 |
| COc1ccccc1N1CCN(CCCNC(=O)Nc2ccccc2-c2ccc(C(C)(C)C)cc2)CC1 | 120 |
| COc1ccccc1N1CCN(CCCNC(=O)NCc2cc(F)ccc2-c2ccccc2)CC1 | 88 |
| COc1ccccc1N1CCN(CCCNC(=O)Nc2ccccc2-c2cccc(F)c2)CC1 | 170 |
| COc1ccccc1N1CCN(CCCNC(=O)NCc2ccc(F)cc2-c2ccccc2)CC1 | 73 |

The compounds below were run against T1, D(2) dopamine receptor (assay: Displacement of [3H]-N-methylspiperone from human dopmaine D2S receptor expressed in CHO cell membrane assessed as inhibition constant by competition binding assay).
Assay type: cell membranes

| Ki [nM] | SMILES |
| --- | --- |
| 90 | COc1ccccc1N1CCN(CCCNC(=O)Nc2ccccc2-c2ccc(C(C)C)cc2)CC1 |
| 140 | COc1ccccc1N1CCN(CCCNC(=O)NCc2c(F)cccc2-c2ccccc2)CC1 |
| 62 | COc1ccccc1N1CCN(CCCNC(=O)NCc2ccccc2-c2ccc(C)cc2)CC1 |
| 18 | COc1ccccc1N1CCN(CCCNC(=O)Nc2cccc(-c3ccccc3)c2)CC1 |
| 37 | COc1ccc(CNC(=O)NCCCN2CCN(c3ccccc3OC)CC2)c(-c2ccccc2)c1 |

The next lines start with the compound.

| SMILES | Ki [nM] |
| --- | --- |
| COc1cccc(-c2ccccc2NC(=O)NCCCN2CCN(c3ccccc3OC)CC2)c1 | 110 |
| COc1ccccc1N1CCN(CCCNC(=O)Nc2ccc(-c3ccccc3)cc2)CC1 | 130 |
| COc1cccc(-c2ccccc2CNC(=O)NCCCN2CCN(c3ccccc3OC)CC2)c1 | 88 |
| COc1ccccc1N1CCN(CCCNC(=O)Nc2ccccc2-c2ccc(C(C)(C)C)cc2)CC1 | 78 |
| COc1ccccc1N1CCN(CCCNC(=O)NCc2cc(F)ccc2-c2ccccc2)CC1 | 38 |
| COc1ccccc1N1CCN(CCCNC(=O)Nc2ccccc2-c2cccc(F)c2)CC1 | 110 |
| COc1ccccc1N1CCN(CCCNC(=O)NCc2ccc(F)cc2-c2ccccc2)CC1 | 40 |

What follows are compounds tested against T2, D(4) dopamine receptor (Homo sapiens, UniProt P21917) (assay: Displacement of [3H]-N-methylspiperone from human dopmaine D4.4 receptor expressed in HEK293T cells assessed as inhibition constant by competition binding assay).
T2 sequence (P21917 whole entry): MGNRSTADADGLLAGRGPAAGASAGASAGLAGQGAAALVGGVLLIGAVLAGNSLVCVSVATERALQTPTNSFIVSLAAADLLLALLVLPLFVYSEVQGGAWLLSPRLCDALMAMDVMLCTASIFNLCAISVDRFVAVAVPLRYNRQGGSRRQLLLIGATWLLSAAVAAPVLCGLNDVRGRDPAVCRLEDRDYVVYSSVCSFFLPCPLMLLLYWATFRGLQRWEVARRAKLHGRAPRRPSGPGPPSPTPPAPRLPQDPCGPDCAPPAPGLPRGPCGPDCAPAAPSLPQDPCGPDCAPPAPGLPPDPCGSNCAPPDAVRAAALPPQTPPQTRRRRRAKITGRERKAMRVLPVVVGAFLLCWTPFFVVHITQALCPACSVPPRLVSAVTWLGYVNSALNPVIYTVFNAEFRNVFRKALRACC
Assay type: cell-based

| Ki [nM] | SMILES |
| --- | --- |
| 4.2 | COc1ccccc1N1CCN(CCCNC(=O)NCc2ccccc2-c2ccc(C)cc2)CC1 |
| 7.2 | COc1ccccc1N1CCN(CCCNC(=O)Nc2cccc(-c3ccccc3)c2)CC1 |
| 3.1 | COc1ccc(CNC(=O)NCCCN2CCN(c3ccccc3OC)CC2)c(-c2ccccc2)c1 |

Second part, the compound before the results:

| SMILES | Ki [nM] |
| --- | --- |
| COc1cccc(-c2ccccc2NC(=O)NCCCN2CCN(c3ccccc3OC)CC2)c1 | 10 |
| COc1ccccc1N1CCN(CCCNC(=O)NCc2cccc(F)c2-c2ccccc2)CC1 | 1.1 |
| COc1ccccc1N1CCN(CCCNC(=O)Nc2ccc(-c3ccccc3)cc2)CC1 | 110 |
| COc1cccc(-c2ccccc2CNC(=O)NCCCN2CCN(c3ccccc3OC)CC2)c1 | 13 |
| COc1ccccc1N1CCN(CCCNC(=O)Nc2ccccc2-c2ccc(C(C)(C)C)cc2)CC1 | 30 |
| COc1ccccc1N1CCN(CCCNC(=O)NCc2cc(F)ccc2-c2ccccc2)CC1 | 4.6 |
| COc1ccccc1N1CCN(CCCNC(=O)Nc2ccccc2-c2cccc(F)c2)CC1 | 4 |
| COc1ccccc1N1CCN(CCCNC(=O)NCc2ccc(F)cc2-c2ccccc2)CC1 | 2.7 |
